Reference: the NIST ThermoML archive (doi:10.1016/j.jct.2009.01.010)
Numbers after ± are expanded uncertainties.

Tests used:
[1] = 298.15 K, 101 kPa, Liquid; for speed of sound: Linear variable-path acoustic interferometer; for mass density: Pycnometric method
[2] = refractive index (Na D-line) (dimensionless); conditions: 298.15 K; 101.33 kPa; Liquid; Abbe refractometer
[3] = refractive index (Na D-line) (dimensionless); xn = mol fraction of the nth substance listed; conditions: 298.15 K, 101 kPa, Liquid, Abbe refractometer
[4] = xn = mol fraction of the nth substance listed; conditions: 298.15 K, 101 kPa, Liquid; for mass density: Pycnometric method; for speed of sound: Linear variable-path acoustic interferometer

COCCOCCO [2-(2-methoxyethoxy)ethanol]
Conditions | mass density [kg/m3] | refractive index | speed of sound [m/s]
[1] | 1016.95 ± 7.5 | – | 1422.6 ± 5.4
[2] | – | 1.425 ± 0.001 | –

COCCO [2-methoxyethan-1-ol]
Conditions | mass density [kg/m3] | refractive index | speed of sound [m/s]
[1] | 960.23 ± 6.7 | – | 1341.7 ± 5.4
[2] | – | 1.4002 ± 0.001 | –

O [water] + COCCOCCO
x2 = 0
Conditions | mass density [kg/m3] | refractive index
[3] | – | 1.333 ± 0.001
[4] | 999.704 ± 0.91 | –

COCCOCCO [2-(2-methoxyethoxy)ethanol] + O
Conditions | mass density, [4] [kg/m3] | refractive index, [3] | speed of sound, [4] [m/s]
x1 = 0.013 | 1002.42 ± 0.91 | 1.341 ± 0.001 | 1546 ± 2
x1 = 0.026 | 1008.21 ± 0.91 | 1.349 ± 0.001 | 1582 ± 2
x1 = 0.051 | 1017.19 ± 0.93 | 1.36 ± 0.001 | 1640 ± 2.1
x1 = 0.064 | 1021.22 ± 0.94 | 1.366 ± 0.001 | 1646.7 ± 2.1
x1 = 0.074 | 1023.92 ± 0.94 | 1.37 ± 0.001 | 1662 ± 2.1
x1 = 0.101 | 1029.24 ± 0.96 | 1.378 ± 0.001 | 1674 ± 2.2
x1 = 0.15 | 1034.64 ± 1 | 1.39 ± 0.001 | 1674 ± 2.2
x1 = 0.187 | 1035.66 ± 1.1 | 1.396 ± 0.001 | 1660 ± 2.3
x1 = 0.305 | 1034.8 ± 1.3 | 1.408 ± 0.001 | 1606 ± 2.6
x1 = 0.401 | 1031.91 ± 1.7 | 1.412 ± 0.001 | 1562 ± 2.9
x1 = 0.506 | 1028.25 ± 2.3 | 1.415 ± 0.001 | 1514 ± 3.2
x1 = 0.646 | 1024.01 ± 3.4 | 1.418 ± 0.001 | 1474 ± 3.8
x1 = 0.766 | 1021.27 ± 4.5 | 1.419 ± 0.001 | 1454 ± 4.3
x1 = 0.895 | 1018.65 ± 6.1 | 1.422 ± 0.001 | 1442 ± 4.9
x1 = 1 | 1016.95 ± 7.5 | 1.425 ± 0.001 | 1422.6 ± 5.4

CCOCCOCCO [3,6-dioxa-1-octanol]
Conditions | mass density [kg/m3] | refractive index | speed of sound [m/s]
[1] | 984.6 ± 7.1 | – | 1378 ± 5.4
[2] | – | 1.425 ± 0.001 | –

O [water] + CCOCCOCCO
x2 = 0
Conditions | mass density [kg/m3] | refractive index
[3] | – | 1.3325 ± 0.0003
[4] | 999.704 ± 0.91 | –

O [water] + COCCO
x2 = 0
Conditions | mass density [kg/m3] | refractive index
[3] | – | 1.333 ± 0.001
[4] | 999.704 ± 0.91 | –

CCOCCOCCO [3,6-dioxa-1-octanol] + O
Conditions | mass density, [4] [kg/m3] | refractive index, [3] | speed of sound, [4] [m/s]
x1 = 0.013 | 1001.37 ± 0.91 | 1.3424 ± 0.0003 | 1562 ± 2
x1 = 0.025 | 1005.93 ± 0.91 | 1.3515 ± 0.0003 | 1602 ± 2.1
x1 = 0.05 | 1013.24 ± 0.92 | 1.3654 ± 0.0003 | 1656 ± 2.1
x1 = 0.06 | 1015.27 ± 0.93 | 1.3695 ± 0.0003 | 1670.5 ± 2.1
x1 = 0.076 | 1017.84 ± 0.94 | 1.376 ± 0.0003 | 1670 ± 2.1
x1 = 0.101 | 1020.05 ± 0.95 | 1.3837 ± 0.0003 | 1658 ± 2.1
x1 = 0.152 | 1019.56 ± 0.99 | 1.396 ± 0.0003 | 1621 ± 2.2
x1 = 0.202 | 1017.51 ± 1.1 | 1.4028 ± 0.0004 | 1601.9 ± 2.3
x1 = 0.302 | 1011.81 ± 1.3 | 1.4108 ± 0.0004 | 1549.5 ± 2.5
x1 = 0.402 | 1005.59 ± 1.6 | 1.414 ± 0.0005 | 1500 ± 2.8
x1 = 0.519 | 999.21 ± 2.3 | 1.4198 ± 0.0006 | 1460 ± 3.3
x1 = 0.59 | 996.2 ± 2.8 | 1.4203 ± 0.0007 | 1442 ± 3.6
x1 = 0.775 | 990.78 ± 4.4 | 1.4228 ± 0.0008 | 1412 ± 4.3
x1 = 0.852 | 988.76 ± 5.2 | 1.4235 ± 0.0009 | 1398 ± 4.7
x1 = 1 | 984.6 ± 7.1 | 1.425 ± 0.001 | 1378 ± 5.4
